Experimental data taken from patent US10131652B2, “Pyrimidinyloxy benzene derivatives as herbicides” (E. I. DU PONT DE NEMOURS AND COMPANY, priority 2014, dated 2018).

Columns and labels:
Type in all cases: in vivo
[1] = tested on: small-flower umbrella sedge (Cyperus difformis); test: Test C flooded paddy test plant response; details: Flood, 250 g ai/ha; scale of 0 to 100 where 0 is no effect and 100 is complete control; 13 to 15 days
How it was run: (§1)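 Scale 0 (no effect) to 100 (complete control), assigned visually versus controls after 13–15 d greenhouse. Application: directly to paddy water, 3 cm flood depth kept constant, 2-leaf stage.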

rice (Oryza sativa) = test: Test C flooded paddy test plant response; details: Flood, 250 g ai/ha; scale of 0 to 100 where 0 is no effect and 100 is complete control; 13 to 15 days
How it was run: as §1

[2] = tested on: ducksalad (Heteranthera limosa); test: Test C flooded paddy test plant response; details: Flood, 250 g ai/ha; scale of 0 to 100 where 0 is no effect and 100 is complete control; 13 to 15 days
How it was run: as §1

[3] = tested on: barnyardgrass (Echinochloa crus-galli); test: Test C flooded paddy test plant response; details: Flood, 250 g ai/ha; scale of 0 to 100 where 0 is no effect and 100 is complete control; 13 to 15 days
How it was run: as §1

[4] = tested on: wheat (Triticum aestivum); test: Test B pre-/postemergence plant response
How it was run: (§2)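 Seeds in loam–sand blend given preemergence soil spray; separately, plants at one- to two-leaf stage (2–10 cm) sprayed postemergence, compounds in non-phytotoxic solvent with surfactant. Injury rated visually versus untreated controls after ~10 days in greenhouse, 0 (no effect) to 100 (complete control).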

[5] = tested on: pigweed (Amaranthus retroflexus); test: Test B pre-/postemergence plant response
How it was run: as §2

corn (Zea mays) = test: Test B pre-/postemergence plant response
How it was run: as §2

[6] = tested on: morningglory (Ipomoea spp.); test: Test B pre-/postemergence plant response
How it was run: as §2

[7] = tested on: giant foxtail (Setaria faberii); test: Test B pre-/postemergence plant response
How it was run: as §2

[8] = tested on: large (Lg) crabgrass (Digitaria sanguinalis); test: Test B pre-/postemergence plant response
How it was run: as §2

[9] = tested on: barnyardgrass (Echinochloa crus-galli); test: Test B pre-/postemergence plant response
How it was run: as §2

[10] = tested on: velvetleaf (Abutilon theophrasti); test: Test B pre-/postemergence plant response
How it was run: as §2

[11] = 125 g ai/ha, postemergence, 0 to 100 scale, 0 no effect, 100 complete control
[12] = Postemergence, 500 g ai/ha, 0 to 100 scale (0 no effect, 100 complete control)
[13] = Preemergence, 125 g ai/ha, 0 to 100 scale where 0 is no effect and 100 is complete control
[14] = Preemergence, 500 g ai/ha, 0 to 100 scale (0 no effect, 100 complete control)
[15] = Preemergence, 125 g ai/ha, 0 to 100 scale (0 no effect, 100 complete control)
[16] = Preemergence, 500 g ai/ha, 0 to 100 scale where 0 is no effect and 100 is complete control

| SMILES | Sedge, Umbrella plant response rating [1] | Rice plant response rating (rice (Oryza sativa)) | Ducksalad plant response rating [2] | Barnyardgrass plant response rating [3] | Plant response rating, Wheat [4, 11] | Plant response rating, Wheat [4, 12] | Plant response rating, Pigweed [5, 11] | Plant response rating, Pigweed [5, 12] | Plant response rating, Corn (corn (Zea mays); [11]) | Plant response rating, Corn (corn (Zea mays); [12]) | Plant response rating, Morningglory [6, 11] | Plant response rating, Morningglory [6, 12] | Plant response rating, Foxtail, Giant [7, 11] | Plant response rating, Foxtail, Giant [7, 12] | Plant response rating, Crabgrass, Large [8, 11] | Plant response rating, Crabgrass, Large [8, 12] | Plant response rating, Barnyardgrass [9, 11] | Plant response rating, Barnyardgrass [9, 12] | Plant response rating, Velvetleaf [10, 11] | Plant response rating, Velvetleaf [10, 12] | other results |
| --- | --- | --- | --- | --- | --- | --- | --- | --- | --- | --- | --- | --- | --- | --- | --- | --- | --- | --- | --- | --- | --- |
| FC(F)(F)c1cnc(Oc2ccccc2-c2cscn2)nc1 [Compound 14] | 0 | 0 | 40 | 0 | 0 | 0 | 0 | 50 | 0 | 30 | 0 | 0 | 0 | 10 | 0 | 10 | 0 | 0 | 20 | 30 | Plant response rating, Wheat [4, 13]: 0; Plant response rating, Wheat [4, 14]: 0; Plant response rating, Pigweed [5, 13]: 0; Plant response rating, Pigweed [5, 14]: 100; Plant response rating, Corn (corn (Zea mays); [13]): 0; Plant response rating, Corn (corn (Zea mays); [14]): 0; Plant response rating, Morningglory [6, 13]: 0; Plant response rating, Morningglory [6, 14]: 0; Plant response rating, Foxtail, Giant [7, 13]: 0; Plant response rating, Foxtail, Giant [7, 14]: 30; Plant response rating, Crabgrass, Large [8, 13]: 0; Plant response rating, Crabgrass, Large [8, 14]: 20; Plant response rating, Barnyardgrass [9, 13]: 0; Plant response rating, Barnyardgrass [9, 14]: 0; Plant response rating, Velvetleaf [10, 13]: 0; Plant response rating, Velvetleaf [10, 14]: 20 |
| Clc1cnc(Oc2ccccc2-c2nccs2)nc1 [Compound 199] | 80 | 0 | 0 | 0 | 0 | 0 | 10 | 30 | 0 | 0 | 0 | 10 | 0 | 0 | 0 | 10 | 0 | 0 | 0 | 10 | Wheat plant response rating [4, 15]: 0; Plant response rating, Wheat [4, 16]: 0; Pigweed plant response rating [5, 15]: 0; Plant response rating, Pigweed [5, 16]: 30; Corn plant response rating (corn (Zea mays); [15]): 0; Plant response rating, Corn (corn (Zea mays); [16]): 0; Morningglory plant response rating [6, 15]: 0; Plant response rating, Morningglory [6, 16]: 0; Foxtail, Giant plant response rating [7, 15]: 0; Plant response rating, Foxtail, Giant [7, 16]: 0; Crabgrass, Large plant response rating [8, 15]: 0; Plant response rating, Crabgrass, Large [8, 16]: 10; Barnyardgrass plant response rating [9, 15]: 0; Plant response rating, Barnyardgrass [9, 16]: 0; Velvetleaf plant response rating [10, 15]: 0; Plant response rating, Velvetleaf [10, 16]: 10 |
| Clc1cnc(Oc2ccccc2-c2nccc(Cl)n2)nc1 [Compound 18] | 0 | 0 | 0 | 0 | 0 | 0 | 0 | 0 | 0 | 0 | 0 | 0 | 0 | 0 | 0 | 0 | 0 | 0 | 0 | 0 | Plant response rating, Wheat [4, 13]: 0; Plant response rating, Wheat [4, 14]: 0; Plant response rating, Pigweed [5, 13]: 0; Plant response rating, Pigweed [5, 14]: 30; Plant response rating, Corn (corn (Zea mays); [13]): 0; Plant response rating, Corn (corn (Zea mays); [14]): 0; Plant response rating, Morningglory [6, 13]: 0; Plant response rating, Morningglory [6, 14]: 0; Plant response rating, Foxtail, Giant [7, 13]: 0; Plant response rating, Foxtail, Giant [7, 14]: 10; Plant response rating, Crabgrass, Large [8, 13]: 0; Plant response rating, Crabgrass, Large [8, 14]: 20; Plant response rating, Barnyardgrass [9, 13]: 0; Plant response rating, Barnyardgrass [9, 14]: 0; Plant response rating, Velvetleaf [10, 13]: 0; Plant response rating, Velvetleaf [10, 14]: 0 |
| FC(F)(F)c1cccc(-c2ccccc2Oc2ncc(Cl)cn2)n1 [Compound 19] | 0 | 0 | 0 | 0 | 0 | 0 | 0 | 0 | 0 | 0 | 0 | 0 | 0 | 0 | 0 | 0 | 0 | 0 | 0 | 0 | Plant response rating, Wheat [4, 13]: 0; Plant response rating, Wheat [4, 14]: 0; Plant response rating, Pigweed [5, 13]: 0; Plant response rating, Pigweed [5, 14]: 20; Plant response rating, Corn (corn (Zea mays); [13]): 0; Plant response rating, Corn (corn (Zea mays); [14]): 0; Plant response rating, Morningglory [6, 13]: 0; Plant response rating, Morningglory [6, 14]: 0; Plant response rating, Foxtail, Giant [7, 13]: 0; Plant response rating, Foxtail, Giant [7, 14]: 70; Plant response rating, Crabgrass, Large [8, 13]: 0; Plant response rating, Crabgrass, Large [8, 14]: 50; Plant response rating, Barnyardgrass [9, 13]: 0; Plant response rating, Barnyardgrass [9, 14]: 0; Plant response rating, Velvetleaf [10, 13]: 0; Plant response rating, Velvetleaf [10, 14]: 0 |
